Measurements taken from PMC6100347, “Simultaneous Determination of Decursin, Decursinol Angelate, Nodakenin, and Decursinol of Angelica gigas Nakai in Human Plasma by UHPLC-MS/MS: Application to Pharmacokinetic Study” (Molecules : A Journal of Synthetic Chemistry and Natural …, 2018).

Columns and labels:
[1] = Pharmacokinetic study after oral administration of AGN root extract powder in healthy Korean subjects; type: in vivo, human; conditions: mean ± SE, n = 10; for Cmax / AUC(0-inf) / Tmax / half-life / Vd/F: male; for Cmax / AUC(0-inf) / Tmax / half-life: human plasma; for Cmax: single usual oral dose of 4.6 g AGN root extract powder (0.055 mg D, 0.184 mg DA, 1.095 mg nodakenin); for AUC(0-inf) / Tmax / half-life / CL/F / Vd/F: single usual oral dose of 4.6 g AGN root extract powder; for CL/F / Vd/F: humans; for CL/F: dose of each coumarin / AUC0–∞; for Vd/F: human, plasma
Method: Ten healthy male subjects (Korean, 23–25 years, weight of 56.7–86.2 kg, and height of 159.8–188.0 cm) were included for this clinical trial. These subjects were in good health condition prior to this study based on a physical examination, medical history, and laboratory tests. Clinical trial protocol was approved by the Institutional Review Board of Wonkwang Oriental Medicine Hospital, Gwangju, Korea (https://cris.nih.go.kr, no. KCT0001118). This clinical trial was carried out in accordance with the revised Declaration of Helsinki for biomedical research involving human subjects and Guideline for Good Clinical Practice.
All subjects fasted for at least 10 h before drug administration. They continued the fasting for another 4 h. These subjects abstained from consuming alcohol or xanthine-containing foods, or beverages during the study. A usual oral dose of AGN root extract powder was given to each subject with 240 mL of spring water. The usual dose approved by the MFDS was of 4.6 g. It contained 0.055 mg of D, 0.184 mg of DA, and 1.095 mg of nodakenin. Blood samples were taken from the forearm vein before and at 0.25, 0.5, 0.75, 1, 2, 3, 4, 6, 8, 12, and 24 h after oral administration. Samples were transferred to Vacutainer® (10 mL, Becton Dickinson and Company, NJ, USA) tubes and immediately centrifuged (10,000× g, 10 min, 4 °C) to obtain plasma samples. Obtained plasma samples were transferred to polyethylene tubes and stored at −80 °C until analysis.
Plasma concentration–time data were analyzed with non-compartmental method using WinNonlin® software (version 7.0, Pharsight®, Certara™ Company, Princeton, NJ, USA) to obtain pharmacokinetic parameters. The area under the plasma concentration–time curve from zero to time infinity (AUC0–∞) was calculated as AUC0–t + Ct/k, where Ct is was the last measurable concentration. AUC0–t was calculated by linear trapezoidal rule from zero to the last measurable time point. Oral clearance (CL/F) was calculated as dose of each coumarin divided by AUC0–∞, where F was oral bioavailability. The t1/2 was calculated as 0.693/k, where k was terminal rate constant. All results are expressed as mean value ± standard error (mean ± SE, n = 10).

[2] = Published PK study of AGN-based dietary supplement Cogni Q after oral administration in humans; type: in vivo, human; conditions: Cogni Q (ref 23) vs 4.6 g AGN root extract powder
Method: PK study of the four coumarins has been reported in several studies. However, presented PK parameters are inconsistent with each other. Of these studies, only one paper has reported a PK study for D, DA, and DOH after oral administration in humans (male, n = 10) for AGN-based dietary supplement Cogni Q (119 mg D and 77 mg DA from four vegicaps). […] Such discrepancies in PK parameters between that study and the current study might be due to differences in dosage and the influence of excipients from different formulations. PKs of nodakenin in humans have not been reported previously.

[3] = Stability in human plasma under various storage conditions (QC samples); type: in vitro ADME; conditions: in % (unit assumed); for Stability, Processed Sample (10 °C in Auto Sampler for 24 h): extracted human plasma sample; for Stability, Processed Sample (10 °C in Auto Sampler for 24 h) / Stability, Long-Term (−80 °C for 30 Days) / Stability, Bench-Top (8 h at Room Temperature) / Stability, Freeze-Thaw (3 Cycles): mean ± SD, n = 5; for Stability, Long-Term (−80 °C for 30 Days) / Stability, Bench-Top (8 h at Room Temperature) / Stability, Freeze-Thaw (3 Cycles) / Stability mean values (range over all storage conditions and concentrations): human plasma; for Stability, Bench-Top (8 h at Room Temperature): measured vs initial value; for Stability, Freeze-Thaw (3 Cycles): −80 °C and room temperature; for Stability mean values (range over all storage conditions and concentrations): bench-top, processed sample, freeze-thaw, long-term, low and high QC
Method: Bench-top stability test was conducted by using unextracted QC samples at room temperature for 8 h. Processed sample stability test was carried out by analyzing extracted samples in an auto sampler at 10 °C for 24 h. Freeze–thaw stability was estimated after three frozen and thawing cycles at −80 °C and room temperature on consecutive days. Long-term stability was examined after storing samples at −80 °C for a month. Stability of each coumarin was estimated by comparing the initial value with measured value after the examination (n = 5). The sample was considered stable if each value was less than 15% and all value of data expressed as mean ± standard deviation (mean ± SD).

| Cmax [1] | AUC(0-inf) [1] | Tmax [1] | half-life [1] | t1/2 of published study relative to t1/2 of this study (times longer) [2] | Stability, Processed Sample (10 °C in Auto Sampler for 24 h) ([3]; nominal conc. 0.15 ng/mL) | Stability, Processed Sample (10 °C in Auto Sampler for 24 h) ([3]; nominal conc. 40 ng/mL) | Stability, Long-Term (−80 °C for 30 Days) ([3]; nominal conc. 0.15 ng/mL) | Stability, Bench-Top (8 h at Room Temperature) ([3]; nominal conc. 0.15 ng/mL) | Stability, Freeze-Thaw (3 Cycles) ([3]; nominal conc. 0.15 ng/mL) | Stability, Long-Term (−80 °C for 30 Days) ([3]; nominal conc. 40 ng/mL) | Stability, Bench-Top (8 h at Room Temperature) ([3]; nominal conc. 40 ng/mL) | Stability, Freeze-Thaw (3 Cycles) ([3]; nominal conc. 40 ng/mL) | Stability mean values (range over all storage conditions and concentrations) [3] | CL/F [1] | Vd/F [1] | SMILES |
| --- | --- | --- | --- | --- | --- | --- | --- | --- | --- | --- | --- | --- | --- | --- | --- | --- |
| 0.92 ± 0.16 ng/mL | 2.43 ± 0.45 ng·h/mL | 0.64 ± 0.06 h | 2.62 ± 0.5 h | ~2.5 times | 102.43 ± 5.27 | 104.77 ± 2.48 | 87.35 ± 9.60 | 89.75 ± 11.39 | 92.06 ± 2.28 | 106.93 ± 11.89 | 101.81 ± 7.72 | 104.29 ± 9.30 | 87.35–106.93 | – | – | CC1(C)Oc2cc3oc(=O)ccc3cc2C[C@@H]1O [DOH, decursinol] |
| 11.9 ± 1.43 ng/mL | 22.3 ± 5.04 ng·h/mL | 0.44 ± 0.05 h | 3.03 ± 0.52 h | about 5.84 times | 100.34 ± 9.38 | 108.94 ± 11.50 | 105.00 ± 9.02 | 101.91 ± 3.91 | 96.54 ± 10.95 | 102.26 ± 10.17 | 108.71 ± 14.16 | 102.80 ± 12.88 | 96.54–108.94 | 3.11 ± 0.42 L/h | 11.9 ± 1.5 L | CC(C)=CC(=O)O[C@H]1Cc2cc3ccc(=O)oc3cc2OC1(C)C [D, decursin] |
| 7.72 ± 0.84 ng/mL | 19.6 ± 3.71 ng·h/mL | 0.31 ± 0.04 h | 4.04 ± 0.64 h | ~3.7 times | 111.85 ± 12.49 | 103.88 ± 3.51 | 106.20 ± 9.09 | 108.58 ± 10.18 | 103.55 ± 8.34 | 99.35 ± 4.17 | 107.87 ± 4.07 | 100.75 ± 4.12 | 99.35–111.85 | 12.00 ± 1.97 L/h | 60 ± 7.3 L | C/C=C(/C)C(=O)O[C@H]1Cc2cc3ccc(=O)oc3cc2OC1(C)C [DA, decursinol angelate] |
| 0.95 ± 0.17 ng/mL | 3.11 ± 0.8 ng·h/mL | 0.67 ± 0.04 h | 6.28 ± 2.47 h | – | 107.70 ± 9.77 | 103.17 ± 10.19 | 111.62 ± 8.13 | 101.43 ± 7.53 | 103.49 ± 8.40 | 101.90 ± 9.83 | 107.91 ± 6.81 | 104.79 ± 12.76 | 101.43–111.62 | 622.29 ± 159.24 L/h | 2800 ± 420 L | CC(C)(O[C@@H]1O[C@H](CO)[C@@H](O)[C@H](O)[C@H]1O)[C@H]1Cc2cc3ccc(=O)oc3cc2O1 [Nodakenin, nodakenin] |
